Reference: patent US11723907B2, “Anti-aging compounds” (THE CLEVELAND CLINIC FOUNDATION, priority 2017, dated 2023)

What was measured:
[1] = system: normal human fibroblasts (NHDF) and stromal cells isolated from human normal bone marrow; experiment: Replicative lifespan (RLS) of normal cells in tissue culture; type: cell-based; conditions: normal fibroblasts and mesenchymal cells
Source text: (§1) FIGS. 1A-1I provide graphs and images showing a new high throughput method for simultaneous detection of senescence associated SAβG activity and ATP in culture of normal pre-aged cells identified two potent anti-aging scaffolds. (A). General schema of HTS. (B). […] (C). Structures and corresponding tautameric forms of lead compounds. (D) Evaluation of possible genotoxic effect of experimental drugs in modified Ames test. 4-Nitroquinoline 1-oxide (4NQO) was used as a positive control. […] The general schema of RLS measurement in different cell types. (F) VA and N2N1 considerably extend RLS of normal human fibroblasts (NHDF) and stromal cells isolated from human normal bone marrow. (G). […] (I). Upper panel: Morphological appearance of NHDF at late passages with or without treatment. Lower panel: Cells were also fixed in para-formaldehyde and stained to detect SAβG.
The inventors developed a new high-throughput screening (HTS) method for identification of anti-aging drugs (FIG. 1). The novel method was specifically designed for simultaneous detection of β-galactosidase activity in cell lysate followed by ATP detection by standard luciferase based assay. […] Altogether, the procedure allowed a simultaneous quantifiable detection of senescence associated β-galactosidase (SAβG) activity and evaluation of ATP level as a sign of improved proliferative capacity or cytotoxicity. […]

[2] = system: fibroblasts derived from a patient diagnosed with Bloom syndrome; experiment: RLS of Bloom syndrome fibroblasts; type: cell-based, human
Source text: as §1

[3] = system: hematopoietic colony assays; experiment: Hematologic toxicity in hematopoietic colony assays; type: cell-based
Source text: They have first applied them in a battery of tissue culture assays measuring i) exhaustion kinetics of HSC and ii) hematologic toxicity. […] The inventors then focused our studies on HSC performance measured in CFU assay and in LTC-IC (FIG. 2), the best in vitro surrogate assay for the quantification and functional assessment of HSCs.

[4] = system: HSC/progenitors from normal bone marrows; experiment: CFU and LTC-IC assays, normal bone marrow; type: cell-based, human; conditions: for colonies formation: tissue culture derived from normal bone marrows; for total number of cells at end of 1st part of LTC-IC assay: versus untreated samples
Source text: FIGS. 2A-2G provide graphs and images showing N2N1 and VA support HSC/progenitors populations under pressure of differentiation and tissue culture stress in vitro and in vivo. General schema of CFU (A) and LTC-IC assays (B). […] Representative result of three NBM is shown. (D) The morphology of cells at the end of 1st part of LTC-IC assay is shown. The total number of cells at this step of experiment was always larger in the samples treated with experimental drugs. (E) Treatment of mice with N2N1 promotes maintenance of normal HSC in vivo. Competitive repopulation assay performed on CD45.2 mice treated with N2N1. Summary of four animals, three hematopoietic tissues. […] Representative result of three patients is shown.
While these compounds may have many applications, the inventors have focused on potential usage of these agents to improve the function of HSC in BMF. They have first applied them in a battery of tissue culture assays measuring i) exhaustion kinetics of HSC and ii) hematologic toxicity. […] The inventors then focused our studies on HSC performance measured in CFU assay and in LTC-IC (FIG. 2), the best in vitro surrogate assay for the quantification and functional assessment of HSCs. The potential positive impact of identified pro-survival catalysts on viability and propagation of HSC was evaluated in methylcellulose cultures, classic CFU assay, long-term culture colony-initiating (LTC-IC) cell assays (FIGS. 2A, B and C) and competitive repopulation assay based on CD45.1/2 mouse model (FIG. 2E).
As a starting point for clinical application of identified redox catalysts, the inventors tested them on their ability to stimulate hematopoiesis in normal and damaged bone marrow cells, isolated from the patients with severe AA (FIGS. 2C and F). Very promising data was obtained, confirming the original idea that these small molecules can support propagation of both normal HSC and stem cells presented in damaged or disease bone marrow.

normal fibroblasts = experiment: Telomere length in treated fibroblasts; type: cell-based
Source text: Based on results obtained on tissue cultured cells (increased RLS) and an increase in the numbers of HSC surrogate cells (LTC-IC or CFU), the inventors set their future goal to develop a novel pharmacological treatment for AA patients and potentially for other BMF. They have examined the most prominent features of cellular aging: telomere shortening, mitochondrial dysfunction or decline in respiratory capacity and shift in intracellular redox balance toward more oxidized environment. […] The only persistent effect of VA was considerable reduction in global protein disulfide bonds (up to 30%) detected by Elman's reagent or direct labelling of reduced sulfhydryl groups with biotin-switch assay (FIG. 3A). That brought the reductive hypothesis to the inventors' attention. The redox potential is controlled by sophisticated set of diverse enzymes and this system is fed from generation of NADPH by multiple hydrogenases (FIG. 3B). Among them, the glucose-6-phosphate dehydrogenase (G6P) is most important, because it controls the rate limiting step of pentose phosphate pathway. The other important dehydrogenases are isocytrate dehydrogenases (cytoplasmic and mitochondrial, IDH1/2) and 6-phosphogluconate dehydrogenase (6PG). The next anti-oxidant cellular protection layer is thioredoxin and glutathione systems (FIG. 3B). The first one is composed of thioredoxin reductase (TrxR) and thioredoxin. […]

fibroblasts = experiment: Gene expression analysis of fibroblasts (RNAseq); type: cell-based; conditions: RNAseq exome

Compound: O=C1/C(=N/O)C=Cc2ccccc21 [N2N1, 1-naphthoquinone-2-monoxime]
- expansion above regular replicative life span [1]: ~25 doublings
- response of RLS to treatment [2]: responded positively
- LD50 [3]: 15 µM
- colonies formation [4]: promote colonies formation
- total number of cells at end of 1st part of LTC-IC assay [4]: always larger
- telomere length (normal fibroblasts): maintenance of telomere length was observed
- expression of stem cell markers (fibroblasts): revealed the expression of some stem cell markers

Compound: O=C1NC(=O)C(=NO)C(=O)N1 [VA, 2,4,5,6(1H,3H)-pyrimidine-tetrone 5-oxime]
- expansion above regular replicative life span [1]: ~25 doublings
- response of RLS to treatment [2]: responded positively
- LD50 [3]: 5000 µM
- colonies formation [4]: promote colonies formation
- total number of cells at end of 1st part of LTC-IC assay [4]: always larger
- telomere length (normal fibroblasts): maintenance of telomere length was observed
- expression of stem cell markers (fibroblasts): revealed the expression of some stem cell markers
